# Reference: US20100173888A1 (Pfizer Inc, priority 2008, published 2010)
# Molecular target: human recombinant H-PGDS (Homo sapiens, UniProt O60760)
# Experiment: Fluorescence intensity h-PGDS TBA enzyme assay (PGH2 depletion, MDA/TBA fluorescence)
# Format: biochemical
# Conditions: 1:175,000 human recombinant H-PGDS, 42 second reaction, 3-fold serial dilutions, highest concentration typically 1 μM
# Procedure: Fluoresecence Intensity h-PGDSTBA Enzyme Assay
# Prostaglandin D Synthase (PGDS) converts the substrate prostaglandin H2 (PGH2) to prostaglandin D2. The depletion of PGH2 was measured via an Fe(II) reduction of the remaining PGH2 to malondialdehyde (MDA) and 12-HHT. The enzyme assay is based on the quantitative formation of a fluorescent complex from the non-fluorescent compounds MDA and 2-thiobarbituric acid (TBA), substantially as described in U.S. patent application publication US-2004/152148 by Lombardt.
# The enzyme assay (31 μls) contained 100 mM Tris base pH 8.0, 100 μM MgCl2, 0.1 mg/ml IgG Rabbit serum, 5.0 μM PGH2 (Cayman; ethanol solution, #17020), 2.5 mM L-Glutathione (Sigma; reduced form. #G4251), 1:175,000 human recombinant H-PGDS (from 1 mg/ml), 0.5% DMSO and inhibitor (varying concentration). Three μls of diluted inhibitor (dissolved in DMSO) was plated into a 384-well assay plate followed by a 25 μl addition of an enzyme solution containing h-PGDS, Tris, MgCl2, IgG and L-Glutathione. After preincubation of inhibitor and enzyme solution for 10 minutes at room temperature, the reaction was initiated with a 3 μl addition of substrate solution in 10 mM HCl. The reaction was terminated after 42 second by the addition (3 μl) of stop buffer containing FeCl2 and citric acid. After addition of 45.5 μls of TBA plates were heated for one hour in a 70° C. oven. Plates were cooled at room temperature overnight and read on a plate reader the next day with excitation @ 530 nm and emission @ 565 nm.
# IC50' s of inhibitors were calculated with a 4-parameter fit using 11 inhibitor concentrations in duplicate with 3-fold serial dilutions. Controls on each plate included no inhibitor (zero % effect) and an inhibitor 10-fold in excess of its' IC50 (100% effect). The highest inhibitor concentration tested was typically 1 μM.
# Chain of human recombinant H-PGDS (O60760 whole entry): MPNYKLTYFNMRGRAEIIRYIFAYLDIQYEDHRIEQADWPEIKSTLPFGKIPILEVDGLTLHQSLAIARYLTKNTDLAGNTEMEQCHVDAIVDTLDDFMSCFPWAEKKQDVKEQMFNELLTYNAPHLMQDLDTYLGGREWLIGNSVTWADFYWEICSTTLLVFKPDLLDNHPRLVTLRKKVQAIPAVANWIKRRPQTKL
row,IC50 [nM],SMILES
1,21.1,"CN(C)CCCNC(=O)[C@H]1CC[C@H](NC(=O)c2ccc(-c3cccc(F)c3)nc2)CC1 [Example 113A, N-(trans-4-{[3-(dimethylamino)propyl]carbamoyl}cyclohexyl)-6-(3-fluorophenyl)nicotinamide]"
2,7,"O=C(N[C@H]1CC[C@H](C(=O)N[C@@H]2CCNC2=O)CC1)c1ccc(-c2cccc(F)c2)nc1 [Example 113B, 6-(3-fluorophenyl)-N-(trans-4-{[(3R)-2-oxopyrrolidin-3-yl]carbamoyl}cyclohexyl)nicotinamide]"
3,7.4,"O=C(N[C@H]1CC[C@H](C(=O)N[C@H]2CCNC2=O)CC1)c1ccc(-c2cccc(F)c2)nc1 [Example 113C, 6-(3-fluorophenyl)-N-(trans-4-{[(3S)-2-oxopyrrolidin-3-yl]carbamoyl}cyclohexyl)nicotinamide]"
4,10.8,"N[C@H]1CCCC[C@H]1NC(=O)[C@H]1CC[C@H](NC(=O)c2ccc(-c3cccc(F)c3)nc2)CC1 [Example 113D, N-(trans-4-{[(1R,2S)-2-aminocyclohexyl]carbamoyl}cyclohexyl)-6-(3-fluorophenyl)nicotinamide]"
5,8.8,"O=C(N[C@H]1CC[C@H](C(=O)N[C@@H]2CCOC2)CC1)c1ccc(-c2cccc(F)c2)nc1 [Example 113E, 6-(3-fluorophenyl)-N-{trans-4-[(3R)-tetrahydrofuran-3-ylcarbamoyl]cyclohexyl}nicotinamide]"
6,4.5,"O=C(N[C@H]1CC[C@H](C(=O)NCCCO)CC1)c1ccc(-c2cccc(F)c2)nc1 [Example 113G, 6-(3-fluorophenyl)-N-{trans-4-[(3-hydroxypropyl)carbamoyl]cyclohexyl}nicotinamide]"
7,46,"O=C(N[C@H]1CC[C@H](C(=O)NCCN2CCCCC2)CC1)c1ccc(-c2cccc(F)c2)nc1 [Example 113H, 6-(3-fluorophenyl)-N-{trans-4-[(2-piperidin-1-ylethyl)carbamoyl]cyclohexyl}nicotinamide]"
8,10.5,"COCCNC(=O)[C@H]1CC[C@H](NC(=O)c2ccc(-c3cccc(F)c3)nc2)CC1 [Example 113I, 6-(3-fluorophenyl)-N-{trans-4-[(2-methoxyethyl)carbamoyl]cyclohexyl}nicotinamide]"
9,6.6,"CC[C@@H](O)C(=O)N[C@H]1CC[C@H](NC(=O)c2ccc(-c3cccc(F)c3)nc2)CC1 [Example 113J, 6-(3-fluorophenyl)-N-(trans-4-{[(2R)-2-hydroxybutanoyl]amino}cyclohexyl)nicotinamide]"
10,9.6,"CC(C)(N)C(=O)N[C@H]1CC[C@H](NC(=O)c2ccc(-c3cccc(F)c3)nc2)CC1 [Example 113K, 6-(3-fluorophenyl)-N-{trans-4-[(2-methylalanyl)amino]cyclohexyl}nicotinamide]"

# Further lines, the molecule ahead of its results:
row,SMILES,IC50 [nM]
1,O=C(N[C@H]1CCC[C@@H](NC(=O)N2CCOCC2)C1)c1ccc(-c2cccc(F)c2)nc1 (relative stereo) [Example 267],11
2,"CN1CCN(C(=O)N[C@@H]2CCC[C@H](NC(=O)c3ccc(-c4cccc(F)c4)nc3)C2)CC1 (relative stereo) [Example 268, N-(cis-3-({[6-(3-Fluorophenyl)pyridine-3-yl]carbonyl}amino)cyclohexyl]-4-methylpiperazine-1-carboxamide]",24.6
3,"CN(C(=O)[C@@H]1CCC[C@H](NC(=O)c2ccc(-c3cccc(F)c3)nc2)C1)C1CCNCC1 (stereo in doubt) [Example 192, 6-(3-Fluorophenyl)-N-{(1S,3R)-3-[methyl(piperidin-4-yl)carbamoyl]cyclohexyl}nicotinamide]",15.3
4,"CN[C@H]1CC[C@H](NC(=O)[C@@H]2CCC[C@H](NC(=O)c3ccc(-c4cccc(F)c4)nc3)C2)CC1 (stereo in doubt) [Example 193, 6-(3-Fluorophenyl)-N-[(1S,3R)-3-{[trans-4-(methylamino)cyclohexyl]carbamoyl}cyclohexyl]nicotinamide]",10.2
5,"CC(C)(O)CNC(=O)[C@@H]1CCC[C@H](NC(=O)c2ccc(-c3cccc(F)c3)nc2)C1 (stereo in doubt) [Example 195, 6-(3-Fluorophenyl)-N-{(1S,3R)-3-[(2-hydroxy-2-methylpropyl)carbamoyl]cyclohexyl}nicotinamide]",11.8
6,"O=C(N[C@H]1CCC[C@@H](CN2CC(O)C2)C1)c1ccc(-c2cccc(F)c2)nc1 (stereo in doubt) [Example 256, 6-(3-Fluorophenyl)-N-{(1S,3R)-3-[(3-hydroxyazetidin-1-yl)methyl]cyclohexyl}nicotinamide]",44.1
7,"O=C(NC1(c2ccccn2)CC1)c1ccc(-c2cccc(F)c2)nc1 [Example 1, 6-(3-Fluorophenyl)-N-(1-pyridin-2-ylcyclopropyl)nicotinamide]",64.9
8,"COC(=O)C1(NC(=O)c2ccc(-c3cccc(F)c3)nc2)CC1 [Example 2, Methyl 1-({[6-(3-fluorophenyl)pyridin-3-yl]carbonyl}amino)cyclopropanecarboxylate]",319
9,"COC(=O)C1(NC(=O)c2ccc(-c3cccc(C)c3)nc2)CC1 [Example 3, Methyl 1-({[6-(3-methylphenyl)pyridin-3-yl]carbonyl}amino)cyclopropanecarboxylate]",246
10,"COC(=O)C1(NC(=O)c2ccc(-c3cccc(OC)c3)nc2)CC1 [Example 4, Methyl 1-({[6-(3-methoxyphenyl)pyridin-3-yl]carbonyl}amino)cyclopropanecarboxylate]",≥ 1000
11,COC(=O)C1(NC(=O)c2ccc(-c3ccc(F)cc3)nc2)CC1 [Example 5],≥ 1000
12,"O=C(NC1CCCC1)c1ccc(-c2cccc(F)c2)nc1 [Example 9, N-Cyclopentyl-6-(3-fluorophenyl)nicotinamide]",7.11
13,COC[C@H]1CCC[C@H]1NC(=O)c1ccc(-c2cccc(F)c2)nc1 [Example 10],94.3
14,"O=C(NC1CCCCC1O)c1ccc(-c2cccc(F)c2)nc1 (stereo not drawn) [Example 17, 6-(3-Fluorophenyl)-N-(2-hydroxycyclohexyl)nicotinamide]",2.87
15,"O=C(NC1CCCCC1)c1ccc(-c2cccc(F)c2)nc1 [Example 18, N-Cyclohexyl-6-(3-fluorophenyl)nicotinamide]",7.72
16,"Cc1cccc(-c2ccc(C(=O)NC3CCCCC3)cn2)c1 [Example 19, N-Cyclohexyl-6-(3-methylphenyl)nicotinamide]",10.2
17,"COc1cccc(-c2ccc(C(=O)NC3CCCCC3)cn2)c1 [Example 20, N-Cyclohexyl-6-(3-methoxyphenyl)nicotinamide]",105
18,"O=C(NC1CCCCC1)c1ccc(-c2ccccc2)nc1 [Example 21, N-Cyclohexyl-6-phenylnicotinamide]",1.66
19,"O=C(NC1CCCCC1)c1ccc(-c2ccc(F)cc2)nc1 [Example 22, N-Cyclohexyl-6-(4-fluorophenyl)nicotinamide]",40.8
20,O=C(N[C@@H]1CCCC[C@@H]1CO)c1ccc(-c2cccc(F)c2)nc1 [Example 24],20.1
21,O=C(N[C@H]1CCCC[C@@H]1O)c1ccc(-c2cccc(F)c2)nc1 [Example 25],22.3
22,"CC(C)(O)C1CCC(NC(=O)c2ccc(-c3cccc(F)c3)nc2)CC1 (stereo not drawn) [Example 48, 6-(3-Fluorophenyl)-N-[4-(1-hydroxy-1-methylethyl)cyclohexyl]nicotinamide]",0.614
23,"O=C(N[C@H]1CC[C@H](O)CC1)c1ccc(-c2cccc(F)c2)nc1 [Example 104, 6-(3-Fluorophenyl)-N-(trans-4-hydroxycyclohexyl)nicotinamide]",2.29
